Measurements reported in patent publication US20190343908A1, “Therapeutic Combination for the Treatment of Cancer” (Nerium Biotechnology Inc., priority 2011, published 2019).

Assays:
[1] = test system: T47D (human breast cancer); test: Methyl-Tetrazolium viability assay, T47D; assay type: cell-based; design: key: absorbance (optical density) at 570 nm, second wavelength subtracted
Text: (§1) Three different viability assays were chosen to complement each other and yielded results dependent on concentration and cell line: the Methyl Tetrazolium dye assay, the Sulforhodamine B fluorescent dye assay, and the Crystal Violet dye assay.
The Methyl-Tetrazolium dye assay measures the activity of enzymes in mitochondria. The dye precursor is taken up by cells, where it undergoes reduction to the purple formazan. It measures only the mitochondrial activity and, thus, it is not always a reliable indication of whether the cells themselves are alive or dead, since even a recently dead cell has […] enzyme activity in mitochondria. Intracellular glucose concentration, pH, and time before assay all affect the measurements.
(§2) The Methyl Tetrazolium, Sulforhodamine B, and Crystal Violet assays were used to assess cell viabilities. The incubation times were 24 hours, 48 hours, and 72 hours. The Nerium oleander extract Anvirzel™ (a hot water extract of oleander obtained from Salud Integral, Honduras) was tested in concentrations ranging from 0.01 ng/mL to 10 ng/mL.
(§3) Cells were detached by trypsinization (Trypsin-0.25% EDTA, Invitrogen, 25200-072) during the logarithmic phase of culture growth and plated in 96-well plates (18.000 cells/well) (Corning, Costar 359) in a final volume of 200 μl of medium per well. […] The absorbance was measured after 24 hours, 48 hours, and 72 hours of incubation.
For the Methyl-Tetrazolium assay, the dye (Sigma, M2128; 5 mg/mL, diluted in phosphate-buffered saline) was added to each well and plates were incubated for 3 hours at 37° C. After the end of the incubation period, the medium was discarded and the cells were rinsed with phosphate-buffered saline. Finally, the formazan crystals were dissolved in dimethylsulphoxide (Sigma, D4540).
(§4) The optical density of each plate was measured on a μQuant spectrophotometer and the data were analyzed with Gen5 software (μQuant Biomolecular Spectrophotometer MQX200 and Gen5™ Microplate Data Collection & Analysis software, BioTek® Instruments. Inc, April 2008). Absorbance was measured at 570 nm for all assays and a second wavelength was measured in order to subtract noise. For the Methyl-Tetrazolium assay this second wavelength was 630 nm and for the Sulforhodamine B and Crystal Violet assays it was 690 nm.

[2] = test system: COR-L 105 (non-small cell lung carcinoma); test: Sulforhodamine B viability assay, COR-L 105; assay type: cell-based, human; design: key to SRB Average: absorbance (optical density) at 570 nm, second wavelength subtracted; conditions: for SRB Average 24 h / SRB Average 48 h / SRB Average 72 h: COR-L 105, Run 3
Text: as §1
The Sulforhodamine B and Crystal Violet assays provide information about protein and were used to complement the Methyl-Tetrazolium dye assay. […] It is used for the quantification of cellular proteins of cultured cells. The assay using Crystal Violet, a dye that binds electrostatically to proteins and stains DNA, provides a reliable, simple assay for measuring viability of cells.
as §2, §3
For the Sulforhodamine B assay, 96-well plates were fixed by 10% trichloroacetic acid (Fluka, 91228) and were incubated at 4° C. for 1 hour. Afterwards, plates were rinsed with water and cells were stained with 0.4% Sulforhodamine B (Sigma, 341738), dissolved in 1% acetic acid (Carlo Ebra, 401422) for 15 minutes at room temperature (RT). The unbound stain was washed twice with 1% acetic acid. Finally, 10 mM Tris Buffer pH 10.5 (Sigma, T6791) was added to dissolve the dye.
as §4

With `N.N.[Cl][Pt][Cl]` [cisplatin] the “MTT Average” value ([1]; T47D Run 1, 24 h, 0.1 μg/ml CDDP) was 0.166, the “MTT Average” value ([1]; T47D Run 1, 24 h, 1 μg/ml CDDP) was 0.033 and the “MTT Average” value ([1]; T47D Run 1, 24 h, 10 μg/ml CDDP) was 0.046. For the same compound, the “MTT Average” value ([1]; T47D Run 1, 24 h, 100 μg/ml CDDP) was 0.045, the “MTT Average” value ([1]; T47D Run 1, 48 h, 1 μg/ml CDDP) was 0.039 and the “MTT Average” value ([1]; T47D Run 1, 48 h, 10 μg/ml CDDP) was 0.044. The “MTT Average” value ([1]; T47D Run 1, 48 h, 100 μg/ml CDDP) was 0.038, the “MTT Average” value ([1]; T47D Run 1, 72 h, 0.1 μg/ml CDDP) was 0.336 and the “MTT Average” value ([1]; T47D Run 1, 72 h, 1 μg/ml CDDP) was 0.04. For the same compound, the “MTT Average” value ([1]; T47D Run 1, 72 h, 10 μg/ml CDDP) was 0.05, the “MTT Average” value ([1]; T47D Run 1, 72 h, 100 μg/ml CDDP) was 0.049 and the “MTT Average” value ([1]; T47D Run 2, 24 h, 0.1 μg/ml CDDP) was 0.181. The “MTT Average” value ([1]; T47D Run 2, 24 h, 1 μg/ml CDDP) was 0.051, the “MTT Average” value ([1]; T47D Run 2, 24 h, 10 μg/ml CDDP) was 0.07 and the “MTT Average” value ([1]; T47D Run 2, 24 h, 100 μg/ml CDDP) was 0.051. For the same compound, the “MTT Average” value ([1]; T47D Run 2, 48 h, 0.1 μg/ml CDDP) was 0.262, the “MTT Average” value ([1]; T47D Run 2, 48 h, 1 μg/ml CDDP) was 0.052 and the “MTT Average” value ([1]; T47D Run 2, 48 h, 10 μg/ml CDDP) was 0.066. For the same compound, the “MTT Average” value ([1]; T47D Run 2, 48 h, 100 μg/ml CDDP) was 0.054, the “MTT Average” value ([1]; T47D Run 2, 72 h, 0.1 μg/ml CDDP) was 0.397 and the “MTT Average” value ([1]; T47D Run 2, 72 h, 1 μg/ml CDDP) was 0.046. The “MTT Average” value ([1]; T47D Run 2, 72 h, 10 μg/ml CDDP) was 0.041, the “MTT Average” value ([1]; T47D Run 2, 72 h, 100 μg/ml CDDP) was 0.037 and the “MTT Average” value ([1]; T47D Run 3, 24 h, 1 μg/ml CDDP) was 0.033. The “MTT Average” value ([1]; T47D Run 3, 24 h, 10 μg/ml CDDP) was 0.074, the “MTT Average” value ([1]; T47D Run 3, 24 h, 100 μg/ml CDDP) was 0.047 and the “MTT Average” value ([1]; T47D Run 3, 48 h, 0.1 μg/ml CDDP) was 0.261. The “MTT Average” value ([1]; T47D Run 3, 48 h, 1 μg/ml CDDP) was 0.047, the “MTT Average” value ([1]; T47D Run 3, 48 h, 10 μg/ml CDDP) was 0.077 and the “MTT Average” value ([1]; T47D Run 3, 48 h, 100 μg/ml CDDP) was 0.051. The “MTT Average” value ([1]; T47D Run 3, 72 h, 0.1 μg/ml CDDP) was 0.371, the “MTT Average” value ([1]; T47D Run 3, 72 h, 1 μg/ml CDDP) was 0.035 and the “MTT Average” value ([1]; T47D Run 3, 72 h, 10 μg/ml CDDP) was 0.057. For the same compound, the “MTT Average” value ([1]; T47D Run 3, 72 h, 100 μg/ml CDDP) was 0.035, the “SRB Average 24 h” value ([2]; 0.1 μg/ml CDDP) was 1.731 and the “SRB Average 48 h” value ([2]; 0.1 μg/ml CDDP) was 2.759. The “SRB Average 72 h” value ([2]; 0.1 μg/ml CDDP) was 2.681, the “SRB Average 24 h” value ([2]; 1 μg/ml CDDP) was 1.862 and the “SRB Average 48 h” value ([2]; 1 μg/ml CDDP) was 2.832. The “SRB Average 72 h” value ([2]; 1 μg/ml CDDP) was 2.654, the “SRB Average 24 h” value ([2]; 10 μg/ml CDDP) was 1.565 and the “SRB Average 48 h” value ([2]; 10 μg/ml CDDP) was 2.85. The “SRB Average 72 h” value ([2]; 10 μg/ml CDDP) was 2.737, the “SRB Average 24 h” value ([2]; 100 μg/ml CDDP) was 1.113 and the “SRB Average 48 h” value ([2]; 100 μg/ml CDDP) was 2.596. The “SRB Average 72 h” value ([2]; 100 μg/ml CDDP) was 2.819, the “SRB Average” value ([2]; Run 1, 24 h, 0.1 μg/ml CDDP) was 1.526 and the “SRB Average” value ([2]; Run 1, 24 h, 1 μg/ml CDDP) was 1.714. For the same compound, the “SRB Average” value ([2]; Run 1, 24 h, 10 μg/ml CDDP) was 1.386, the “SRB Average” value ([2]; Run 1, 24 h, 100 μg/ml CDDP) was 1.523 and the “SRB Average” value ([2]; Run 1, 48 h, 0.1 μg/ml CDDP) was 1.705. For the same compound, the “SRB Average” value ([2]; Run 1, 48 h, 1 μg/ml CDDP) was 1.716, the “SRB Average” value ([2]; Run 1, 48 h, 10 μg/ml CDDP) was 1.465 and the “SRB Average” value ([2]; Run 1, 48 h, 100 μg/ml CDDP) was 1.415. The “SRB Average” value ([2]; Run 1, 72 h, 0.1 μg/ml CDDP) was 1.491, the “SRB Average” value ([2]; Run 1, 72 h, 1 μg/ml CDDP) was 1.356 and the “SRB Average” value ([2]; Run 1, 72 h, 10 μg/ml CDDP) was 1.544. For the same compound, the “SRB Average” value ([2]; Run 1, 72 h, 100 μg/ml CDDP) was 1.456, the “SRB Average” value ([2]; Run 2, 24 h, 0.1 μg/ml CDDP) was 1.731 and the “SRB Average” value ([2]; Run 2, 24 h, 1 μg/ml CDDP) was 1.862. The “SRB Average” value ([2]; Run 2, 24 h, 10 μg/ml CDDP) was 1.565, the “SRB Average” value ([2]; Run 2, 24 h, 100 μg/ml CDDP) was 1.113 and the “SRB Average” value ([2]; Run 2, 48 h, 0.1 μg/ml CDDP) was 2.759. The “SRB Average” value ([2]; Run 2, 48 h, 1 μg/ml CDDP) was 2.832, the “SRB Average” value ([2]; Run 2, 48 h, 10 μg/ml CDDP) was 2.85 and the “SRB Average” value ([2]; Run 2, 48 h, 100 μg/ml CDDP) was 2.596. The “SRB Average” value ([2]; Run 2, 72 h, 0.1 μg/ml CDDP) was 2.681, the “SRB Average” value ([2]; Run 2, 72 h, 1 μg/ml CDDP) was 2.654 and the “SRB Average” value ([2]; Run 2, 72 h, 10 μg/ml CDDP) was 2.737. The “SRB Average” value ([2]; Run 2, 72 h, 100 μg/ml CDDP) was 2.819.
